Values joined by “and” are separate entries in the source; they are usually repeats but may differ in a detail not shown here. Equal values may be shown once.
Assays:
Format in all cases: in vitro ADME
[1] = Hepatocyte intrinsic clearance assay (metabolic stability), human hepatocytes; conditions: male, human, cryopreserved pooled hepatocytes, Human Hepatocytes, 1 μM test compound
From the text: (§1) The liver is an important organ in the body for drug metabolism. This Example describes hepatocyte intrinsic clearance assays using both human and rat hepatocytes to evaluate the metabolic stability of the indole compounds disclosed herein. The parameters measured include t1/2 (half-life), CLint (intrinsic clearance), and EH (hepatic extraction ratio).
(§2) Testosterone (Lot FE111011-01) was obtained from Cerilliant (Round Rock, Tex.). 7-hydroxycoumarin (Lot 11631ED) was obtained from Sigma Aldrich (St. Louis, Mo.). Cryopreserved human hepatocytes pooled from ten donor males (X008001), cryopreserved male IRC/CD-1 mouse hepatocytes (M005052), INVITROGRO HI Medium (incubation), and INVITROGRO HT Medium (thawing) were obtained from Bioreclamation IVT (Baltimore, Md.). All solvents were obtained from commercial sources and used without further purification.
(§3) Each test compound was prepared as a 1 mM stock solution in DMSO. A 2 μM solution of test compound and positive controls were prepared in INVITROGRO HI Medium (incubation). These solutions were pre-warmed in a sterile incubator set to maintain 37° C., 5% CO2, and 98% humidity. Cryopreserved hepatocytes were prepared at a concentration of 2×10^6 living cells/mL in incubation media and pre-warmed in the incubator. The compound solutions and hepatocyte mixtures were then combined at a ratio of 1:1 (v:v). The final volume of the reaction mixture was 750 μL, containing 1 μM test compound (10 μM for 7-hydroxycoumarin) and […]. The reaction mixture was placed in the incubator on a plate shaker. After 0, 15, 30, 60, 90, and 120 minutes of incubation, 100 μL of reaction mixtures were removed from the incubation plate and mixed with 150 μL of ice-cold acetonitrile in a designated well of a 96-well crash plate. The 96-well crash plate was placed on ice for 15 min, and samples were centrifuged (3,600 RPM, 10 min, 4° C.) to precipitate protein. The supernatants were diluted 1:1 (v:v) with water containing 0.15 μM verapamil and/or 1 μM tolbutamide (internal standards for positive and negative modes, respectively) in a 96-well shallow injection plate. This plate was sealed for LC-MS analysis. All measurements were done in duplicate.
(§4) The residual compound remaining (% R) was determined from LC-MS peak areas by comparison to the zero time point. Metabolic half-life (t1/2) and intrinsic clearance (CLint) values were calculated from the slope of the plot of ln (% R) vs. time and the concentration of hepatocytes present in the incubation. Percent remaining at 60 minutes was calculated by plugging in the 60 minute value into the slope equation generated by the percent remaining time points.
(§5) In vivo hepatic clearance CLH was calculated using the well stirred liver model according to the following equation:
(§6) [formula] where QH is the total liver blood flow, fu is unbound fraction of the drug, and CL′int is defined as follows: CL′int=CLint×(10^6 cells/g of liver weight)×(g liver weight/kg of body weight). In the first approximation, used in this study, fu=1.
(§7) Hepatic extraction ratio EH was calculated using the following equation:
(§8) [formula] Corresponding physiological parameters used in calculations for all species are shown below in Table 3.

human hepatocytes = assay: as above; conditions: Human Hepatocytes; well stirred liver model, fu=1
From the text: as §1, §2, §3, §4, §5, §6, §7, §8

[2] = Hepatocyte intrinsic clearance assay (metabolic stability), rat hepatocytes; conditions: rat, cryopreserved hepatocytes, Rat Hepatocytes, 1 μM test compound
From the text: as §1, §2, §3, §4, §5, §6, §7, §8

rat hepatocytes = assay: as above; conditions: Rat Hepatocytes; well stirred liver model, fu=1
From the text: as §1, §2, §3, §4, §5, §6, §7, §8

SMILES	half-life at 1 μM [1] [h]	hepatocyte CLint at 1 μM [1] [µL/min/1e6 cells]	EH (hepatic extraction ratio) (human hepatocytes)	half-life at 1 μM [2] [h]	hepatocyte CLint at 1 μM [2] [µL/min/1e6 cells]	EH (hepatic extraction ratio) (rat hepatocytes)
N[C@H](c1csc(C(=O)c2c[nH]c3ccccc23)n1)C(F)(F)F [ARI-228]	0.2	64.4	27.6%	0.1	112	88.2%
CC[C@@H](N)c1csc(C(=O)c2c[nH]c3cc(F)ccc23)n1 [ARI-187, (R)-(4-(1-aminopropyl)thiazol-2-yl)(6-fluoro-1H-indol-3-yl)methanone]	18.6	0.621	4.4%	2.3	4.93	24.8%
CCC(=O)c1csc(C(=O)c2c[nH]c3cc(F)ccc23)n1 [ARI-143, 1-(2-(6-fluoro-1H-indole-3-carbonyl)thiazol-4-yl)propan-1-one]	–	–	26.1% and 25.5% and 25.7%	–	–	48.0% and 47.8% and 48.5% and 49.7% and 74.6%
O=C(c1nc([C@@H](O)C(F)(F)F)cs1)c1c[nH]c2cc(F)ccc12 [ARI-211]	1	11.3	23.6%	3.6	3.21	17.7%
